Converted amounts (≈) assume the structure as drawn.

What all share (type): functional
Experiment [1] deals with Candida albicans. Briefly: Antifungal activity against Candida albicans isolate 177 assessed as ergosterol content in total sterol composition at 0.5 times MIC by GC-MS analysis.
The test system of experiment [2] is Candida albicans. Briefly: Antifungal activity against Candida albicans isolate 488 harboring ERG3 H243N, T330A, A351V and ERG11 D225G, E266D, E391G, V488I mutant genes assessed as ergosterol content in total sterol composition at 0.5 times MIC by GC-MS analysis.
Experiment [3] deals with Candida albicans. The experiment in a line: Antifungal activity against Candida albicans isolate 490 harboring ERG3 D147G, T330A, A351V and ERG11 F72S, T229A, E266D, N440S, V488I, R523G mutant genes assessed as ergosterol content in total sterol composition at 0.5 times MIC by GC-MS analysis.
Experiment [4] has as its system Candida albicans. The experiment in a line: Antifungal activity against Candida albicans isolate 490 harboring ERG3 D147G, T330A, A351V and ERG11 F72S, T229A, E266D, N440S, V488I, R523G mutant genes assessed as 14alpha-methyl fecosterol content in total sterol composition at 0.5 times MIC by GC-MS analysis.
Experiment [5] concerns Candida albicans. The experiment in a line: Antifungal activity against Candida albicans isolate 488 harboring ERG3 H243N, T330A, A351V and ERG11 D225G, E266D, E391G, V488I mutant genes assessed as 14alpha-methylergosta-8,24(28)-dien-3beta,6alpha-diol content in total sterol composition at 0.5 times MIC by GC-MS analysis.
Experiment [6] concerns Candida albicans. The experiment in a line: Antifungal activity against Candida albicans isolate 6 assessed as eburicol content in total sterol composition at 0.5 times MIC by GC-MS analysis.
Experiment [7] concerns Candida albicans. Briefly: Antifungal activity against Candida albicans isolate 488 harboring ERG3 H243N, T330A, A351V and ERG11 D225G, E266D, E391G, V488I mutant genes assessed as eburicol content in total sterol composition at 0.5 times MIC by GC-MS analysis.
The subject of experiment [8] is Candida albicans. Briefly: Antifungal activity against Candida albicans isolate 6 by broth microdilution method. (In general: Broth dilution looks for growth in wells or tubes with falling amounts of substance.)
In experiment [9] the test system is Candida albicans. The experiment in a line: Antifungal activity against Candida albicans isolate 177 by broth dilution method.
Experiment [10] deals with Candida albicans. Briefly: Antifungal activity against Candida albicans isolate 490 harboring ERG3 D147G, T330A, A351V and ERG11 F72S, T229A, E266D, N440S, V488I, R523G mutant genes by broth microdilution method.

As a reminder, the MIC is the smallest concentration in the dilution series that meets the test's criterion for growth inhibition. As for `OC(Cn1cncn1)(Cn1cncn1)c1ccc(F)cc1F` [FLUCONAZOLE], the Activity in the experiment with Candida albicans [1] was 76%; in the experiment on Candida albicans [2] it was 7.2%; in the experiment with Candida albicans [3], 3.5%; in the experiment with Candida albicans [4], 69.2%; in the experiment with Candida albicans [5], 14.3%; with Candida albicans [6], 5.4%. Further, in the experiment with Candida albicans [7], the Activity was 7.7%. In addition, the values for the MIC against Candida albicans [8], against Candida albicans [9] and against Candida albicans [10] were 256 µg/mL (≈ 836 µM), 256 µg/mL (≈ 836 µM) and > 256 µg/mL, respectively.

The record behind these values is ChEMBL document CHEMBL1687791, “Identification and characterization of four azole-resistant erg3 mutants of Candida albicans” (2010).
